The text below walks through data of PubChem BioAssay AID504313 (Emory University Molecular Libraries Screening Center, 2011).

Activity calls are given as the source filed them. How the calls were made is not given here. Where only a bound is given, the exact number is not on record here.

As a reminder, the IC50 is the midpoint of a concentration-inhibition curve.

The target in this assay is X-box-binding protein 1 (Homo sapiens) (UniProt P17861). In words: inhibitors of XBP1 reporter signal, dose response, counter-screen, cell-based (AID 504313).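 Further: CHO cells carrying an XBP1 reporter stimulated with tunicamycin; potency is for inhibition of the tunicamycin-induced reporter signal.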 Conditions: XBP1 reporter cell assay, percent of control. On the technique in general: A counterscreen serves to expose hits that act by an unwanted route or on another target.
Take `CCCCC(CC)Cn1c(N)c(C#N)c2nc3ccccc3nc21` (stereo not drawn): the IC50 entry was “inactive”.

Take `Oc1ccc(Cl)cc1-c1cc(-c2ccccc2)n[nH]1`: the IC50 was > 10 µM (inactive).

For `CCCCCCCCCCCCCCCC[n+]1ccc(/C=N/O)cc1`, the IC50 entry was “inactive”.

As for `CCC1CCCCN1S(=O)(=O)c1ccc(C(=O)Nc2nnc(-c3ccccc3Cl)o2)cc1` (stereo not drawn), the IC50 result was “inactive”.

In the case of `CC(C)(C)c1ccc(-c2n[nH]c(=S)n2C2CCCC2)cc1`, the IC50 is > 10 µM (inactive).

For the molecule `C/C(=N\NC(=O)COc1ccc(C(C)(C)C)cc1)c1ccc(N2CCOCC2)cc1`, the IC50 entry was “inactive”.

For `COc1ccc(C(=O)Nc2nnc(-c3ccco3)s2)cc1`, the IC50 entry was “inactive”.

Consider `CC(C)c1ccc(O)c(NC(=S)NC(=O)CCc2ccccc2)c1`, for which the IC50 result is “inactive”.

Regarding `C=C1C(=O)O[C@@H]2C[C@@H](C)[C@@H]3C4OC4C(=O)[C@@]3(C)[C@@H](O)[C@H]12` (stereo partly drawn), the IC50 is 4.96 µM.

`COc1ccc(NC(=O)c2cc3cccc(OC)c3oc2=Nc2ccc(C(=O)O)cc2)cc1OC`: the IC50 entry is “inactive”.

In the case of `Cc1cccc(N2CCN(C(=O)c3c(C)nn(Cc4ccccc4Cl)c3C)CC2)c1C`, the IC50 was > 10 µM (inactive).

As to `COC(=O)/C(=C1/Oc2cc(C)oc(=O)c2S1)C(F)(F)F`, the IC50 was 2.94 µM.

As for `Cc1cc(C)n(-c2nc(Nc3ccccc3C(F)(F)F)nc(-n3nc(C)cc3C)n2)n1`, the IC50 result is “inactive”.

As for `Cc1nc(COC(=O)c2cc(O)c3ccccc3c2O)cs1`, the IC50 was > 10 µM (inactive).

As for `O=C(N/N=C/c1cccs1)c1cccc(NC(=O)c2ccc(Cl)cc2)c1`, the IC50 entry was “inactive”.

For `CCOc1cc(/C=C2/C(=O)ON=C2C)ccc1OCc1ccccc1F`, the IC50 was > 10 µM (inactive).

As to `CC(C)(C)c1nnc(N/N=C/c2cc(Br)ccc2O)n(N)c1=O`, the IC50 is 6.02 µM.

`O=C(CCCOc1ccc(Cl)cc1Cl)N/N=C\C1CCCCC1`: the IC50 result is “inactive”.

In the case of `CCSc1nc2ccccc2n1C(=O)/C=C/c1ccc(OC)c(OC)c1`, the 50% inhibitory concentration (IC50) was 4.84 µM.

For the molecule `CC[C@@H]1CC=C[C@H]2[C@H]1C(=O)N(Cc1ccccc1)[C@H]2c1ccoc1`, the IC50 result was “inactive”.

`Cc1cc(C(=O)COC(=O)c2ccccc2O)c(C)n1Cc1cccs1`: the IC50 was < 0.16 µM (inactive).

Consider `O=C(CCl)Nc1cn(-c2ccccc2)nc1-c1ccc(F)cc1`, for which the IC50 is > 10 µM (inactive).

As to `CS(=O)(=O)c1nc(-c2ccccc2)cc(C(F)(F)F)n1`, the IC50 result is “inactive”.

Take `CC(C)CCN(C(=O)Cc1ccc(Cl)c(Cl)c1)c1c(N)n(Cc2ccccc2)c(=O)[nH]c1=O`: the IC50 entry is “inactive”.

For `C=CCOC(=O)C1=C(C)NC(SCC(=O)Nc2nccs2)=C(C#N)C1c1ccc(Cl)cc1` (stereo not drawn), the IC50 is > 10 µM (inactive).

Consider `O=C1C(Cl)=C(Nc2ccccc2)C(=O)c2ccccc21`, for which the IC50 entry was “inactive”.

In the case of `O=C1C(=O)c2ccc(-c3ccccc3)cc2-c2ccccc21`, the IC50 was 3.26 µM.

On to `CCC(C)(C)c1ccc(Oc2ccc(N)cc2)cc1`, for which the IC50 was less than 0.16 µM.

With `COc1ccc(CC(=O)Nc2cccc(-c3nnc(-c4cccc(C)c4)o3)c2)cc1OC`, the IC50 entry was “inactive”.

As for `COC(=O)CN1C(=S)N(Cc2ccccc2)C(=O)C1CC(=O)Nc1ccc(Br)cc1` (stereo not drawn), the IC50 was 5.87 µM.

Regarding `O=C(OCn1ncc(Br)c(Br)c1=O)c1ccccc1Cl`, the IC50 is 4.81 µM.

As for `O=C(OCn1ncc(Br)c(Br)c1=O)c1c(F)cccc1F`, the IC50 is 3.06 µM.

As for `CCOc1ccc(N(CC(=O)Nc2cccc(Cl)c2)S(=O)(=O)c2c(C)noc2C)cc1`, the IC50 result was “inactive”.

For `CC1CCN(c2nc3ccc(C(=O)O)cc3s2)CC1`, the IC50 result is “inactive”.

As to `Cc1ccc(C)c(OCc2ccc(C(=O)N3N=C(C(F)F)CC3(O)C(F)F)o2)c1` (stereo not drawn), the IC50 entry was “inactive”.

In the case of `CCCc1cc(-c2nc(N)ncc2-c2ccc3c(c2)OCCCO3)c(O)cc1OC`, the IC50 is 5.01 µM.

`CCCCn1c(N2CCC(Cc3ccccc3)CC2)nc2c1c(=O)[nH]c(=O)n2C`: the IC50 was > 10 µM (inactive).

Regarding `CC(C)CCSc1nc2c(c(=O)[nH]c(=O)n2C)n1CCCc1ccccc1`, the IC50 was > 10 µM (inactive).

On to `O=c1cc(-c2c(F)c(F)c(F)c(F)c2F)oc2c(F)c(F)c(F)c(F)c12`, for which the IC50 was 4.69 µM.

Consider `CCOC(=O)c1c(CN2CCOCC2)n(-c2ccccc2)c2cc(Br)c(O)cc12`, for which the IC50 is > 10 µM (inactive).

Consider `CC(=O)/C=C/n1c(=S)oc2ccccc21`, for which the IC50 result is “inactive”.

For the molecule `O=C(Nc1ccccc1-c1nc2ccccc2[nH]1)c1sc2ccccc2c1Cl`, the IC50 is > 10 µM (inactive).

As to `CS(=O)(=O)c1nc(-c2cccs2)cc(C(F)(F)F)n1`, the IC50 entry was “inactive”.

With `Cc1cc(-c2n[nH]c(=S)n2/N=C/C(Br)=C/c2ccccc2)n[nH]1`, the IC50 result was “inactive”.

As for `CCc1ccc(OCC(=O)NC(NC(=S)Nc2ccc(Cl)cc2)C(Cl)(Cl)Cl)cc1` (stereo not drawn), the IC50 result is “inactive”.

`O=c1c(Cl)c(Cl)cnn1Cc1nnc(-c2ccccc2Br)o1`: the IC50 entry was “inactive”.

Regarding `O=C(CN1c2ccccc2Sc2ccccc21)NNC(=O)Nc1cccc(Cl)c1`, the IC50 is > 10 µM (inactive).

With `C=CCn1c(O)c(C(CC)=Nc2ccc(N(CC)CC)cc2)c(=O)[nH]c1=O`, the IC50 result is “inactive”.

As to `Cc1cccc(C(=O)c2cnc3ccccc3c2-c2ccccc2)c1`, the IC50 is > 10 µM (inactive).

`CCOC(=O)C1=C(c2ccccc2)O/C(=C(/C#N)C(F)(F)F)S1`: the IC50 was > 10 µM (inactive).

For the molecule `Fc1cccc(-c2nnn3c2nc(Cl)c2ccccc23)c1`, the IC50 result is “inactive”.

As to `CCCCCCn1c(=O)c(C(=O)Nc2cnccn2)c(O)c2ccccc21`, the 50% inhibitory concentration (IC50) is 1.8 µM.

In the case of `O=C(N=Nc1c(O)n(Cc2ccccc2)c2ccccc12)c1cc2ccccc2cc1O`, the IC50 entry was “inactive”.

On to `CCNc1nc(Oc2c(Cl)cccc2Cl)cc(C(F)(F)F)n1`, for which the IC50 was > 10 µM (inactive).

For `N#C/C(=C\c1ccc([N+](=O)[O-])o1)c1nc2ccccc2[nH]1`, the IC50 is 4.83 µM.

Take `COc1ccc(-c2nn(-c3ccccc3)cc2/C=N/NC(=O)c2ccc(Br)o2)cc1`: the IC50 entry is “inactive”.

Consider `O=C1/C(=C/c2ccncc2)SC(=S)N1C1CCS(=O)(=O)C1` (stereo not drawn), for which the IC50 result is “inactive”.

As for `NC(=O)CC(NC(=O)Cc1cccc2ccccc12)c1ccc(NCc2ccccc2)c([N+](=O)[O-])c1` (stereo not drawn), the IC50 was > 10 µM (inactive).

`CC(C)(C)c1ccc(-c2noc(CCC(N)=O)n2)cc1`: the IC50 is < 0.16 µM (inactive).

As to `O=C1C(Nc2ccccc2)=C/C(=N/S(=O)(=O)c2cccs2)c2ccccc21`, the IC50 is 1.17 µM.

In the case of `CCOc1cc(/C=C\[N+](=O)[O-])ccc1OCC(=O)Nc1ccccc1C`, the IC50 was 4.59 µM.

Take `CS(=O)(=O)c1ccc(S(=O)CC(=O)OCc2ccccc2)c([N+](=O)[O-])c1` (stereo not drawn): the IC50 result is “inactive”.

Regarding `O=C(NCCNC(=O)c1cc(OCC(F)(F)F)ccc1OCC(F)(F)F)Nc1cccc(C(F)(F)F)c1`, the IC50 is > 10 µM (inactive).

Turning to `CCCCCCn1c(=O)c(C(=O)N/N=C/c2cccc(F)c2)c(O)c2ccccc21`, the IC50 result was “inactive”.

For the molecule `CC(C)(C)C(=O)NC(NC(=S)Nc1sc2c(c1C#N)CCCC2)C(Cl)(Cl)Cl` (stereo not drawn), the IC50 is > 10 µM (inactive).

Take `CCc1c(C)sc(NC(=O)CSc2nc3c(c(C(F)(F)F)n2)CCc2ccccc2-3)c1C#N`: the IC50 was > 10 µM (inactive).

Turning to `Nc1c(C(=O)Nc2ccc(S(=O)(=O)N3CCCC3)cc2)sc2nc3ccc(OC(F)(F)F)cc3cc12`, the IC50 entry is “inactive”.

Consider `Cc1ccc(/C=N/N2C(=S)SC(C)(C)C2N(O)C(=O)Nc2ccc([N+](=O)[O-])cc2)cc1` (stereo not drawn), for which the IC50 is 3.54 µM.

On to `Cc1cc2c(cc1C)CSC(c1c(O)ccc3ccccc13)SC2`, for which the IC50 is > 10 µM (inactive).

Turning to `CCN1/C(=C\C=C\C2=[N+](CC)c3ccccc3C2(C)C)C(C)(C)c2ccccc21`, the IC50 was less than 0.16 µM.

For the molecule `C[C@H](NC(=O)c1[nH]cnc1C(=O)Nc1ccc(CNC(=O)OC(C)(C)C)cc1)C(=O)OC(C)(C)C`, the IC50 result is “inactive”.

Take `CC(C)Cn1c(=O)[nH]c(=O)c2c(C(F)(F)F)cc(-c3ccccc3)nc21`: the IC50 was > 10 µM (inactive).

For `CC(=O)N(C1=C(Cl)C(=O)c2ccccc2C1=O)C1CCCCC1`, the IC50 entry is “inactive”.

`Nc1c(S(=O)(=O)c2cccc(Cl)c2)c2nc3ccccc3nc2n1/N=C/c1ccc(O)c(O)c1`: the IC50 was > 10 µM (inactive).

In the case of `CCOC(=O)c1ccc(NC(=O)c2nc[nH]c2C(=O)N[C@@H](C)C(=O)OC(C)(C)C)cc1`, the IC50 entry is “inactive”.

As to `CC(C)(C)c1ccc(C(=O)Nc2ccc(CC(=O)O)cc2)o1`, the IC50 is less than 0.16 µM.

Turning to `Nc1cccc(Nc2nc(OC(C(F)(F)F)C(F)(F)F)nc(OC(C(F)(F)F)C(F)(F)F)n2)c1`, the IC50 was 2.09 µM.

For `CS(=O)(=O)c1nc(-c2ccc(F)cc2)cc(C(F)(F)F)n1`, the IC50 result was “inactive”.

Take `CCCC(=O)NC(NC(=S)Nc1ccc(N=Nc2ccccc2)cc1)C(Cl)(Cl)Cl` (stereo not drawn): the IC50 is > 10 µM (inactive).

As to `FC(F)(F)c1ccc(/C=N/NC(=S)NC2CCCCC2)cc1`, the IC50 is > 10 µM (inactive).

`CCCCCCOC(=O)Nc1ccc(S(=O)(=O)Nc2cccc([N+](=O)[O-])c2)cc1`: the IC50 is > 10 µM (inactive).

Take `CC(/C=N/n1c(C2CCCCC2)n[nH]c1=S)=C\c1ccccc1`: the IC50 was > 10 µM (inactive).

`Cc1ccc(NC(=O)c2cc3ccccc3oc2=O)cc1S(=O)(=O)N(C)C`: the IC50 is less than 0.16 µM.

Consider `OC(CNCC(c1ccc(Cl)cc1Cl)c1c[nH]c2ccccc12)c1ccccc1` (stereo not drawn), for which the IC50 entry was “inactive”.

For `CCOc1ccc(-c2cc(CCCC(=O)NCc3ccc(C)cc3)no2)cc1`, the IC50 is 0.29 µM.

As for `O=C1C(Cl)=C(N2CCCCC2)C(=O)C(Cl)=C1c1cnc(N2CCCCC2)s1`, the IC50 entry was “inactive”.

In the case of `CCn1c(C)nc2cc(-c3nc4n(n3)Cc3ccccc3-4)ccc21`, the IC50 was < 0.16 µM (inactive).

For the molecule `COc1cc(-c2nc3ccc4ccccc4c3c3c2CCC3)cc(OC)c1O`, the IC50 result was “inactive”.
